Experimental data taken from PMC9487510, “A Novel Oral GyrB/ParE Dual Binding Inhibitor Effective against Multidrug-Resistant Neisseria gonorrhoeae and Other High-Threat Pathogens” (Antimicrobial Agents and Chemotherapy, 2022).
Converted amounts (≈) assume the structure as drawn. Where two headings read alike, the source gives them in different places.

Legend:
B. anthracis = assay: microbe, parasite or virus in culture; format: cell-based; details: for MIC: Bacillus anthracis
[1] = Liver microsome stability, human; format: in vitro ADME; details: liver microsomes
Description: Liver microsome stability assays were performed by BioDuro Inc. Human and mouse (CD-1 male) liver microsomes were used. […] Next, 50 μL of reaction buffer was added to solution and mixed via pipetting up and down 6 times. At each time point of 0, 30, and 60 min, an aliquot of 20 μL was removed from each tube. Liver microsomes (LM) working solution was prepared in 0.05 M phosphate reaction buffer (pH = 7.4) to a final concentration of 1.27 mg/mL. NADPH solution was prepared in 0.05 M phosphate buffer to afford a 5 mM buffer solution. […] After vortexing and incubating for 5 min (37°C), 50 μL of NADPH solution was added and mixed via pipetting. At each time point of 0, 5, 15, 30, and 60 min, an aliquot of 20 μL was removed from each tube. Next, 250 μL of quenching solution was aliquoted to quench the reaction, which was then vortexed for 1 min and placed on ice for 40 min. After centrifugation at 4,000 × g for 15 min, 100 μL of supernatant was transferred using a multichannel pipette to 0.65-mL tubes. Samples were diluted with MeOH: H2O (1:1) as necessary. Samples were analyzed by high-pressure liquid chromatography coupled to tandem mass spectrometry (LC/MS/MS) performed on a Sciex Applied Biosystems Qtrap 4000 triple-quadrupole mass spectrometer coupled to a Shimadzu HPLC system to quantify the remaining compound. […]

Serum protein binding = format: in vitro ADME
hERG K+ channel = hERG K+ channel (Homo sapiens, UniProt Q12809); assay: hERG inhibition, whole-cell patch clamp in HEK-293 cells; details: pH 7.4
Chain of hERG K+ channel (Q12809 whole entry): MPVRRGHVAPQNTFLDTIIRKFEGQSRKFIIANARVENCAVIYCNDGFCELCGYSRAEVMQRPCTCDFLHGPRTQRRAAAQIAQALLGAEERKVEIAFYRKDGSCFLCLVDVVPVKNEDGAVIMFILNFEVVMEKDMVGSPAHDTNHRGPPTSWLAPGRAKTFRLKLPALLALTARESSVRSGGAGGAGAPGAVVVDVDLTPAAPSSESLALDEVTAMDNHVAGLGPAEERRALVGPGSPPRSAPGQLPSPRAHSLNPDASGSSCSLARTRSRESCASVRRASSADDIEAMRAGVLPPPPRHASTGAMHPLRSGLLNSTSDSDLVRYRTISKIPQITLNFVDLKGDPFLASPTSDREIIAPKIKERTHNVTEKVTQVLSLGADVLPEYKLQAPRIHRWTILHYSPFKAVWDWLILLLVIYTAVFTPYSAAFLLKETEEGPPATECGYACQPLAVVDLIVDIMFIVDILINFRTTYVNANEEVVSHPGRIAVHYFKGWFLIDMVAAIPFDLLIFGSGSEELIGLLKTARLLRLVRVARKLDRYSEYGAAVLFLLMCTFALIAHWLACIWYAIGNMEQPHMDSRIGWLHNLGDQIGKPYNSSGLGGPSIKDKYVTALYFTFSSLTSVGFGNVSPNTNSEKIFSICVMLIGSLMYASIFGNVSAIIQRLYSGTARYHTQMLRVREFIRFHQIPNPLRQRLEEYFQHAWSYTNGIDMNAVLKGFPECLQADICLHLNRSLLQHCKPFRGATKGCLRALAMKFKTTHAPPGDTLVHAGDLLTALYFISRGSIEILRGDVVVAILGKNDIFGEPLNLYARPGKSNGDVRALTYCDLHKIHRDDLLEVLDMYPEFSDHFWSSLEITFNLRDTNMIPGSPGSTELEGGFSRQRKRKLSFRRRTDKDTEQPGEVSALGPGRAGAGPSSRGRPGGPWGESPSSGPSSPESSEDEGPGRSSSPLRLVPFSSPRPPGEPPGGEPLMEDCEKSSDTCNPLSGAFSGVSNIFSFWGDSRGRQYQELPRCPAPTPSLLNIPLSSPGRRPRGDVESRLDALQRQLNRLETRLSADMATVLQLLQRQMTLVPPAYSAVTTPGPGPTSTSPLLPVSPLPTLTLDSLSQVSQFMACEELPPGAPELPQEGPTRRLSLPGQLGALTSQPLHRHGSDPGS

MRSE = assay: MIC, in vitro susceptibility testing (CLSI); format: cell-based, Staphylococcus epidermidis; details: for MIC: Staphylococcus epidermidis, MRSE, read-out: MIC
MRSA = assay: MIC, in vitro susceptibility testing (CLSI); format: cell-based, Staphylococcus aureus; details: for MIC: Staphylococcus aureus, MRSA

Structure (SMILES): CNc1cc(F)cc2c1[nH]c1nc(Oc3cnc(C)nc3)nc(N3CCC4(CC3)CO[C@@H](CO)C4)c12 [JSF-2414]
- MIC (B. anthracis; strain Ames): 0.049 µg/mL (≈ 0.0993 µM)
- MIC (B. anthracis; strain Vollum V1B): 0.098 µg/mL (≈ 0.199 µM)
- MIC range (B. anthracis; N = 2): 0.049 to 0.098 µg/mL
- microsomal CLint at 1 μM ([1]; pH 7.4, read-out: HLM Clint): 2.1 µL/min/mg
- half-life at 1 μM ([1]; pH 7.4, read-out: HLM t1/2): 5.5 h
- fraction unbound (Serum protein binding): 0.012
- IC50 at 3 min (hERG K+ channel): > 50 µM
- MIC range (MRSE; N = 4): 0.002 to 0.004 µg/mL
- MIC (MRSE; strain 9 25): 0.004 µg/mL (≈ 0.0081 µM)
- MIC (MRSE; strain 9 26): 0.002 µg/mL (≈ 0.00405 µM)
- MIC (MRSE; strain 9 27): 0.002 µg/mL (≈ 0.00405 µM)
- MIC (MRSE; strain 9 28): 0.004 µg/mL (≈ 0.0081 µM)
- MIC range (MRSA; 101 strains (Van: 8)): 0.002 to 0.125 µg/mL
- MIC (MRSA; 101 clinical MRSA strains, read-out: modal MIC): 0.031 µg/mL (≈ 0.0628 µM)
- MIC (MRSA; ciprofloxacin-resistant strains (MIC >4 μg/mL), n = 30, read-out: modal MIC): 0.062 µg/mL (≈ 0.126 µM)
- MIC (MRSA; discussion, read-out: MIC): 0.031 µg/mL (≈ 0.0628 µM)
- MIC (MRSA; strain 2 11 41, read-out: MIC): 0.062 µg/mL (≈ 0.126 µM)
- MIC (MRSA; strain 2 11 42, read-out: MIC): 0.016 µg/mL (≈ 0.0324 µM)
- MIC (MRSA; strain 2 11 43, read-out: MIC): 0.062 µg/mL (≈ 0.126 µM)
- MIC (MRSA; strain 2 11 56, read-out: MIC): 0.004 µg/mL (≈ 0.0081 µM)
- MIC (MRSA; strain 2 11 57, read-out: MIC): 0.125 µg/mL (≈ 0.253 µM)
- MIC (MRSA; strain 2 11 58, read-out: MIC): 0.002 µg/mL (≈ 0.00405 µM)
- MIC (MRSA; strain 2 11 60, read-out: MIC): 0.004 µg/mL (≈ 0.0081 µM)
- MIC (MRSA; strain 2 11 61, read-out: MIC): 0.004 µg/mL (≈ 0.0081 µM)
- MIC (MRSA; strain 2 11 65, read-out: MIC): 0.062 µg/mL (≈ 0.126 µM)
- MIC (MRSA; strain 2 11 66, read-out: MIC): 0.062 µg/mL (≈ 0.126 µM)
- MIC (MRSA; strain 2 11 67, read-out: MIC): 0.004 µg/mL (≈ 0.0081 µM)
- MIC (MRSA; strain 2 11 68, read-out: MIC): 0.004 µg/mL (≈ 0.0081 µM)
- MIC (MRSA; strain 2 11 71, read-out: MIC): 0.062 µg/mL (≈ 0.126 µM)
- MIC (MRSA; strain 2 11 74, read-out: MIC): 0.062 µg/mL (≈ 0.126 µM)
- MIC (MRSA; strain 2 11 75, read-out: MIC): 0.008 µg/mL (≈ 0.0162 µM)
- MIC (MRSA; strain 2 11 79, read-out: MIC): 0.062 µg/mL (≈ 0.126 µM)
- MIC (MRSA; strain 2 11 80, read-out: MIC): 0.002 µg/mL (≈ 0.00405 µM)
- MIC (MRSA; strain 2 11 83, read-out: MIC): 0.062 µg/mL (≈ 0.126 µM)
- MIC (MRSA; strain 2 11 84, read-out: MIC): 0.031 µg/mL (≈ 0.0628 µM)
- MIC (MRSA; strain 2 11 86, read-out: MIC): 0.002 µg/mL (≈ 0.00405 µM)
- MIC (MRSA; strain 2 11 87, read-out: MIC): 0.062 µg/mL (≈ 0.126 µM)
- MIC (MRSA; strain 2 11 90, read-out: MIC): 0.125 µg/mL (≈ 0.253 µM)
- MIC (MRSA; strain 2 11 91, read-out: MIC): 0.016 µg/mL (≈ 0.0324 µM)
- MIC (MRSA; strain 2 11 99, read-out: MIC): 0.008 µg/mL (≈ 0.0162 µM)
- MIC (MRSA; strain 2 12 13, read-out: MIC): 0.125 µg/mL (≈ 0.253 µM)
- MIC (MRSA; strain 2 12 76, read-out: MIC): 0.031 µg/mL (≈ 0.0628 µM)
- MIC (MRSA; strain 2 12 78, read-out: MIC): 0.016 µg/mL (≈ 0.0324 µM)
- MIC (MRSA; strain 2 12 88, read-out: MIC): 0.004 µg/mL (≈ 0.0081 µM)
- MIC (MRSA; strain 2 13 19, read-out: MIC): 0.016 µg/mL (≈ 0.0324 µM)
- MIC (MRSA; strain 2 13 23, read-out: MIC): 0.125 µg/mL (≈ 0.253 µM)
- MIC (MRSA; strain 2 13 26, read-out: MIC): 0.004 µg/mL (≈ 0.0081 µM)
- MIC (MRSA; strain 2 13 27, read-out: MIC): 0.016 µg/mL (≈ 0.0324 µM)
- MIC (MRSA; strain 2 13 29, read-out: MIC): 0.002 µg/mL (≈ 0.00405 µM)
- MIC (MRSA; strain 2 13 32, read-out: MIC): 0.004 µg/mL (≈ 0.0081 µM)
- MIC (MRSA; strain 2 13 33, read-out: MIC): 0.016 µg/mL (≈ 0.0324 µM)
- MIC (MRSA; strain 2 13 41, read-out: MIC): 0.125 µg/mL (≈ 0.253 µM)
- MIC (MRSA; strain 2 13 43, read-out: MIC): 0.062 µg/mL (≈ 0.126 µM)
- MIC (MRSA; strain 2 13 47, read-out: MIC): 0.125 µg/mL (≈ 0.253 µM)
- MIC (MRSA; strain 2 13 48, read-out: MIC): 0.002 µg/mL (≈ 0.00405 µM)
- MIC (MRSA; strain 2 13 52, read-out: MIC): 0.002 µg/mL (≈ 0.00405 µM)
- MIC (MRSA; strain 2 13 53, read-out: MIC): 0.062 µg/mL (≈ 0.126 µM)
- MIC (MRSA; strain 2 13 54, read-out: MIC): 0.062 µg/mL (≈ 0.126 µM)
- MIC (MRSA; strain 2 13 55, read-out: MIC): 0.062 µg/mL (≈ 0.126 µM)
- MIC (MRSA; strain 2 13 56, read-out: MIC): 0.062 µg/mL (≈ 0.126 µM)
